ChEMBL document CHEMBL5532665 (J Med Chem, 2024)
pEC50: −log10 of the molar value. Active and inactive are the calls of the source. The calls are words filed in the database; no cut-off is given here.

What was measured:
Mus musculus [1] = test: Antinociceptive activity in Kunming mouse model assessed as latency of tail withdrawal at 1362 nmol/kg, sc measured for 30 mins by tail-flick test relative to control; assay type: functional; conditions: 0.5 h
Mus musculus [2] = test: Antinociceptive activity in Kunming mouse model assessed as latency of tail withdrawal at 1362 nmol/kg, sc measured for 120 mins by tail-flick test relative to control; assay type: functional; conditions: 2 h
Mus musculus [3] = test: Antinociceptive activity in Kunming mouse model assessed as latency of tail withdrawal at 1362 nmol/kg, sc measured for 60 mins by tail-flick test relative to control; assay type: functional; conditions: 1 h
Mus musculus [4] = test: Antinociceptive activity in Kunming mouse model assessed as latency of tail withdrawal at 1362 nmol/kg, sc measured for 10 mins by tail-flick test relative to control; assay type: functional
Mu-type opioid receptor [5] = biological target: T1, Mu-type opioid receptor (Homo sapiens, UniProt P35372); test: Agonist activity at human MOR expressed in CHO-K1 cells co-expressing G-alpha15 by calcium mobilization assay relative to control; assay type: functional, cell-based; conditions: filed as agonist
[6] = biological target: T2, Delta-type opioid receptor (Homo sapiens, UniProt P41143); test: Agonist activity at human DOR expressed in CHO-K1 cells co-expressing G-alpha15 by calcium mobilization assay relative to control; assay type: functional, cell-based; conditions: filed as agonist
[7] = biological target: T2, Delta-type opioid receptor; test: Agonist activity at human DOR expressed in CHO-K1 cells co-expressing G-alpha15 by calcium mobilization assay; assay type: functional, cell-based
Mus musculus [8] = test: Antinociceptive activity in Kunming mouse model assessed as latency of tail withdrawal at 1312 nmol/kg, sc measured for 30 mins by tail-flick test relative to control; assay type: functional; conditions: 0.5 h
Mus musculus [9] = test: Antinociceptive activity in Kunming mouse model assessed as latency of tail withdrawal at 1312 nmol/kg, sc measured for 10 mins by tail-flick test relative to control; assay type: functional
Mus musculus [10] = test: Antinociceptive activity in Kunming mouse model assessed as latency of tail withdrawal at 1312 nmol/kg, sc measured for 60 mins by tail-flick test relative to control; assay type: functional; conditions: 1 h
Mu-type opioid receptor [11] = biological target: T1, Mu-type opioid receptor; test: Agonist activity at human MOR expressed in CHO-K1 cells co-expressing G-alpha15 by calcium mobilization assay; assay type: functional, cell-based
Mus musculus [12] = test: Antinociceptive activity in Kunming mouse model assessed as latency of tail withdrawal at 1312 nmol/kg, sc measured for 120 mins by tail-flick test relative to control; assay type: functional; conditions: 2 h
Mus musculus [13] = test: Antinociceptive activity in Kunming mouse model assessed as latency of tail withdrawal at 136.2 nmol/kg, sc measured for 10 mins by tail-flick test relative to control; assay type: functional
Mus musculus [14] = test: Antinociceptive activity in Kunming mouse model assessed as latency of tail withdrawal at 136.2 nmol/kg, sc measured for 120 mins by tail-flick test relative to control; assay type: functional; conditions: 2 h
Mus musculus [15] = test: Antinociceptive activity in Kunming mouse model assessed as latency of tail withdrawal at 136.2 nmol/kg, sc measured for 60 mins by tail-flick test relative to control; assay type: functional; conditions: 1 h
Mus musculus [16] = test: Antinociceptive activity in Kunming mouse model assessed as latency of tail withdrawal at 136.2 nmol/kg, sc measured for 30 mins by tail-flick test relative to control; assay type: functional; conditions: 0.5 h
Mus musculus [17] = test: Antinociceptive activity in Kunming mouse model at 13.9 nmol/kg, sc in presence of beta-FNA by tail-flick test; assay type: functional, organism-based
Mus musculus [18] = test: Antinociceptive activity in Kunming mouse model at 13.9 nmol/kg, sc pretreated with NALM subcutaneously followed by compound administration by tail-flick test; assay type: functional, organism-based
Mus musculus [19] = test: Antinociceptive activity in Kunming mouse model at 13.9 nmol/kg, sc pretreated with NALM intracerebroventricularly followed by compound administration by tail-flick test; assay type: functional, organism-based
Mus musculus [20] = test: Antinociceptive activity in Kunming mouse model assessed as increase in analgesic effect at 0.14 to 13.9 nmol/kg, sc measured for 180 to 360 mins by tail-flick test; assay type: functional, organism-based; conditions: dose 0.14-13.9 nmol/kg, time 180-360 min
[21] = biological target: Kappa-type opioid receptor (Homo sapiens, UniProt P41145); test: Agonist activity at human KOR expressed in CHO-K1 cells co-expressing G-alpha15 by calcium mobilization assay relative to control; assay type: functional, cell-based; conditions: filed as agonist
Mus musculus [22] = test: Rewarding affect in Kunming mouse model at 139 nmol/kg, sc pre-exposed to place conditioning for 3 days followed by compound administration and further re-exposed to place conditioning measured on day 5 by unbiased CPP method; assay type: functional, organism-based; conditions: time 2.0 day
Mus musculus [23] = test: Induction of physical dependence in Kunming mouse model assessed as jumping behavior at 2.5 to 125 nmol/kg, sc administered as 7 escalating doses with 8 hr-intervals in-between followed by Nal administration post-2 hrs of last compound dose and further measured for 30 mins by withdrawal assay; assay type: functional, organism-based; conditions: dose 2.5-125 nmol/kg, time 50.5 hrs
Mus musculus [24] = test: Antinociception activity in Kunming mouse model assessed as analgesic effect at 13.9 nmol/kg, sc administered daily measured for 8 days by tail-flick test; assay type: functional, organism-based; conditions: time 8.0 day
Mus musculus [25] = test: Antinociceptive activity in Kunming mouse model at 13.9 nmol/kg, sc in presence of nor-BNI by tail-flick test; assay type: functional, organism-based
Mus musculus [26] = test: Antinociceptive activity in Kunming mouse model at 13.9 nmol/kg, sc in presence of NTI by tail-flick test; assay type: functional, organism-based
Mus musculus [27] = test: Antinociceptive activity in Kunming mouse model at 136.2 nmol/kg, sc pretreated with NALM intracerebroventricularly followed by compound administration by tail-flick test; assay type: functional, organism-based
Mus musculus [28] = test: Antinociceptive activity in Kunming mouse model at 136.2 nmol/kg, sc pretreated with NALM subcutaneously followed by compound administration by tail-flick test; assay type: functional, organism-based
Mus musculus [29] = test: Antinociceptive activity in Kunming mouse model at 136.2 nmol/kg, sc in presence of beta-FNA by tail-flick test; assay type: functional, organism-based
Mus musculus [30] = test: Antinociceptive activity in Kunming mouse model at 136.2 nmol/kg, sc in presence of nor-BNI by tail-flick test; assay type: functional, organism-based
Mus musculus [31] = test: Antinociceptive activity in Kunming mouse model at 136.2 nmol/kg, sc in presence of NTI by tail-flick test; assay type: functional, organism-based

T2 sequence (P41143 whole entry): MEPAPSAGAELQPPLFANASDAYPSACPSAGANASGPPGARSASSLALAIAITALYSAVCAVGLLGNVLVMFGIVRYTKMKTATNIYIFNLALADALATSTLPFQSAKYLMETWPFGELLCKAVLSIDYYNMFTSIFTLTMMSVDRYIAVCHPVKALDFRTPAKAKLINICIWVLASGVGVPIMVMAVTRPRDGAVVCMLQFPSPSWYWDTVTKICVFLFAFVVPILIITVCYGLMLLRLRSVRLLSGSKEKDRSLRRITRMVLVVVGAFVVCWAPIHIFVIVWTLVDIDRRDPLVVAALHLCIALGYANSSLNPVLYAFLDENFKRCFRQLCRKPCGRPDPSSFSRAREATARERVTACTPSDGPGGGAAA
T1 sequence (P35372 whole entry): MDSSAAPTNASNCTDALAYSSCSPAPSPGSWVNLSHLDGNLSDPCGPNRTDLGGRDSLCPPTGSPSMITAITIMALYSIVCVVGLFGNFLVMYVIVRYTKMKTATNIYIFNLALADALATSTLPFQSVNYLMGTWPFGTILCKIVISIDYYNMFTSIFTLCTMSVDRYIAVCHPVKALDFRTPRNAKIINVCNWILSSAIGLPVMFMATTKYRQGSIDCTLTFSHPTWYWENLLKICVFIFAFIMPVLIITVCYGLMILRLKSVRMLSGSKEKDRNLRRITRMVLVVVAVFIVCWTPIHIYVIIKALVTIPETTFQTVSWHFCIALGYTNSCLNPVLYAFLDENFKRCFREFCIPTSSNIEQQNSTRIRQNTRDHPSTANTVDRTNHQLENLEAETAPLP
Kappa-type opioid receptor, sequence (P41145 whole entry): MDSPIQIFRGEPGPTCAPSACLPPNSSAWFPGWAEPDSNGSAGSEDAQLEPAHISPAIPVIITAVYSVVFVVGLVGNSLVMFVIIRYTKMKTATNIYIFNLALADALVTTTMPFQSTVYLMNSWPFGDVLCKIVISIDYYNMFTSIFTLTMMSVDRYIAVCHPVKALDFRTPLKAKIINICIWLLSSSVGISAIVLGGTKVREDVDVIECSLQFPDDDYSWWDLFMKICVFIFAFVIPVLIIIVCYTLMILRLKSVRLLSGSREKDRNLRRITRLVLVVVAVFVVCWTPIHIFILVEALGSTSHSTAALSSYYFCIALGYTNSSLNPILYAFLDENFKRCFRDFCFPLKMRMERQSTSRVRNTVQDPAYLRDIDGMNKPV

Q: What does the source list for Cc1cc(O)cc(C)c1C[C@H](N)C(=O)N[C@@H]1CCCCNC(=O)C[C@@H](C(=O)N2CCC[C@@H]2C(N)=O)NC(=O)[C@H](Cc2ccccc2)NC(=O)CNC1=O?
A: MPE (Mus musculus [1]): 90.5%; MPE (Mus musculus [2]): 44.5%; MPE (Mus musculus [3]): 73.4%; MPE (Mus musculus [4]): 75%

Q: What does the source list for CCCC[C@@H]1NC(=O)[C@H](NC(=O)[C@@H](N)Cc2ccc(O)cc2)CCCCNC(=O)C[C@H](C(=O)N2CCC[C@H]2C(N)=O)NC(=O)[C@H](Cc2ccccc2)NC1=O?
A: Emax (Mu-type opioid receptor [5]): 88.6%; Emax [6]: 83.9%; pEC50 [7]: 7.70; MPE (Mus musculus [8]): 90%; MPE (Mus musculus [9]): 50.4%; MPE (Mus musculus [10]): 75.1%; pEC50 (Mu-type opioid receptor [11]): 5.66; MPE (Mus musculus [12]): 28%

Q: With CC1(C)NC(=O)[C@H](NC(=O)[C@@H](N)Cc2ccc(O)cc2)CCCCNC(=O)C[C@@H](C(=O)N2CCC[C@@H]2C(N)=O)NC(=O)[C@H](Cc2ccccc2)NC1=O as the molecule, how does the MPE (Mus musculus [13]) read?
A: Its MPE is 48.9%.

Q: And the MPE (Mus musculus [14])?
A: Its MPE is 46.1%.

Q: What about the MPE (Mus musculus [15]) of the same molecule?
A: The MPE was 69.3%.

Q: What about the MPE (Mus musculus [16]) of the same molecule?
A: Its MPE is 91.1%.

Q: What does the source list for CN1C(=O)CNC(=O)[C@H](NC(=O)[C@@H](N)Cc2ccc(O)cc2)CCCCNC(=O)C[C@H](C(=O)N2CCC[C@H]2C(N)=O)NC(=O)[C@@H]1Cc1ccccc1?
A: Activity (Mus musculus [17]): inactive; Emax (Mu-type opioid receptor [5]): 90.7%; Activity (Mus musculus [18]): inactive; Activity (Mus musculus [19]): Active; Activity (Mus musculus [20]): Active; Emax [21]: 93.7%; Activity (Mus musculus [22]): inactive; Activity (Mus musculus [23]): inactive; Activity (Mus musculus [24]): Active; Activity (Mus musculus [25]): inactive; Emax [6]: 121%; Activity (Mus musculus [26]): Active

Q: What does the source list for CC1(C)NC(=O)[C@H](NC(=O)[C@@H](N)Cc2ccc(O)cc2)CCCCNC(=O)C[C@H](C(=O)N2CCC[C@H]2C(N)=O)NC(=O)[C@H](Cc2ccccc2)NC1=O?
A: Emax (Mu-type opioid receptor [5]): 100%; Emax [21]: 89.2%; Activity (Mus musculus [27]): Active; Activity (Mus musculus [28]): inactive; Emax [6]: 103%; Activity (Mus musculus [29]): inactive; Activity (Mus musculus [30]): inactive; Activity (Mus musculus [31]): Active
